Laboratory results: PubChem BioAssay (NCI)
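Five compound concentrations were applied to cells in 96-well plates for 48 hours; endpoints were derived by simple linear interpolation of the resulting dose-response curve. Abbreviation: GI50, concentration required for 50% inhibition of growth. TGI: total growth inhibition.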

Assays:
Assay in all cases: NCI-60 cell line screen, 48 h
[1] = system: A549 NSCLC
[2] = system: IGROV1 ovarian
[3] = system: LOX IMVI melanoma
[4] = system: OVCAR-3 ovarian
[5] = system: OVCAR-5 ovarian
[6] = system: RPMI-8226 leukemia
[7] = system: SF-268 CNS
[8] = system: SK-MEL-2 melanoma
[9] = system: SK-MEL-5 melanoma
[10] = system: TK-10 renal

| SMILES | GI50 [1] [µM] | TGI [1] [µM] | GI50 [2] [µM] | TGI [2] [µM] | GI50 [3] [µM] | TGI [3] [µM] | GI50 [4] [µM] | TGI [4] [µM] | GI50 [5] [µM] | TGI [5] [µM] | GI50 [6] [µM] | TGI [6] [µM] | GI50 [7] [µM] | TGI [7] [µM] | GI50 [8] [µM] | TGI [8] [µM] | GI50 [9] [µM] | TGI [9] [µM] | GI50 [10] [µM] | TGI [10] [µM] |
| --- | --- | --- | --- | --- | --- | --- | --- | --- | --- | --- | --- | --- | --- | --- | --- | --- | --- | --- | --- | --- |
| CC[C@@H](C(=O)O)C1CC[C@H](C)C([C@@H](C)[C@H](O)[C@H](C)C(=O)[C@H](CC)C2O[C@]3(C=C[C@@H](O)[C@]4(CC[C@@](C)(C5CC[C@](O)(CC)[C@H](C)O5)O4)O3)[C@H](C)C[C@@H]2C)O1 (stereo not given in full) | 0.282 | 14.1 | 2.28 | 64.8 | 0.641 | 13.6 | 0.0434 | 16.4 | 2.48 | 50.8 | 0.153 | 3.48 | 1.31 | 16 | 0.981 | 7.53 | 0.18 | 0.86 | 0.987 | 39.4 |
| OC(c1cc(-c2ccccc2)nc2ccc(Cl)cc12)C1CCCCN1 (stereo not given) | 3.07 | 8.21 | 1.9 | 4.19 | 1.55 | 2.91 | 2.15 | 5.15 | 1.84 | 4.3 | 2.25 | 5.49 | 3.06 | 14 | 2.45 | 5.02 | 1.91 | 3.47 | 4.06 | 16.2 |
| COc1cc(C2CC(c3ccc4c(c3)OCO4)=NN2C=O)cc(OC)c1OC (stereo not given) | > 24.5 | > 100 | 2.37 | > 100 | 1.27 | > 100 | 0.965 | 3.25 | 12.2 | > 100 | 5.17 | > 64.6 | 6.88 | > 100 | 9.46 | > 100 | 2.39 | 8.11 | > 29.9 | > 100 |
| CC#C[C@]1(O)CC[C@H]2[C@@H]3CCC4=CC(=O)CCC4=C3[C@@H](c3ccc4c(c3)OCO4)C[C@@]21C | 93.4 | 875 | 59.9 | 589 | 113 | 253 | 110 | 320 | 236 | > 1000 | 49.4 | 331 | 79.1 | 481 | 111 | 291 | 66.1 | 199 | 125 | 461 |
| CCN(CC)c1ccc(C(=O)c2ccccc2C(=O)O)c(O)c1 |  | > 100 |  | > 100 |  | > 100 |  | > 100 |  | > 100 |  | > 100 |  | > 100 |  | > 100 |  | > 100 |  | > 100 |
| COc1ccc(/C=C(/C#N)C(N)=O)cc1OC |  | > 100 |  | > 100 |  | > 100 |  | > 100 |  | > 100 |  | > 100 |  | > 100 |  | > 100 |  | > 100 |  | > 100 |
| COc1ccc(/C(C#N)=C/c2ccccc2OC)cc1 | 6.19 | > 100 | 8.82 | > 100 | 6.6 | > 100 | 7.22 | > 100 | 55.4 | > 100 | 9.02 | 46.2 | 35.5 | > 100 | 4.68 | 32.9 | 9.25 | > 100 | 12.4 | > 100 |
| COc1ccc(-c2c3c(N)nc(-c4ccncc4)nc3nc3c2c(C)nn3-c2ccccc2)cc1 | 2.4 | 35.1 | 59.3 | > 100 | 10.1 | > 100 | 3.89 | 16 | 4.03 | > 100 | > 100 | > 100 | 7.93 | > 100 | 31 | > 100 | 6.79 | > 100 | 3.71 | 14.6 |
| CC1OC(O[C@@H]2OC=C(C=O)[C@@]3(O)CC[C@H](C)[C@@H]23)C(O)C(O)C1O (stereo not given in full) |  | > 100 |  | > 100 |  | > 100 |  | > 100 |  | > 100 |  | > 100 |  | > 100 |  | > 100 |  | > 100 |  | > 100 |
| CCCNC1=C(C(=O)OCC)C(=O)CO1 |  | > 100 |  | > 100 |  | > 100 |  | > 100 |  | > 100 |  | > 100 |  | > 100 |  | > 100 |  | > 100 |  | > 100 |
| CCCCCCCCCCCC(=O)OCC1OC(n2cc(F)c(=O)[nH]c2=O)C(NC(=O)OCc2ccccc2)C(OC(=O)CCCCCCCCCCC)C1O (stereo not given) |  | > 100 |  | > 100 |  | > 100 |  | > 100 |  | > 100 |  | > 100 |  | > 100 |  | > 100 |  | > 100 |  | > 100 |
| Cc1[nH]ccc2c1[nH]c1cc(=O)ccc12 |  | > 100 |  | > 100 |  | > 100 |  | > 100 |  | > 100 |  | > 100 |  | > 100 |  | > 100 |  | > 100 |  | > 100 |
| CN(C)C(=O)OC(Cn1cncn1)c1ccc(Cl)cc1Cl (stereo not given) |  | > 100 |  | > 100 |  | > 100 |  | > 100 |  | > 100 |  | > 100 |  | > 100 |  | > 100 |  | > 100 |  | > 100 |
| C/C(=N\NS(=O)(=O)c1ccccc1)c1ccc(Cl)c(Cl)c1 |  | > 100 |  | > 100 |  | > 100 |  | > 100 |  | > 100 |  | > 100 |  | > 100 |  | > 100 |  | > 100 |  | > 100 |
| CCOc1ccc(NC(=O)C(=O)CC(=O)C2=C(C)Nc3ccccc3S2)cc1 |  | > 50 |  | > 50 |  | > 50 |  | > 50 |  | > 50 |  | > 50 |  | > 50 |  | > 50 |  | > 50 |  | > 50 |
| CC1=Nc2ccccc2S/C1=C(/C)NNC(=O)C(N)=O |  | > 100 |  | > 100 |  | > 100 |  | > 100 |  | > 100 |  | > 100 |  | > 100 |  | > 100 |  | > 100 |  | > 100 |
| COc1ccc2nc(-c3cccs3)cc(C(O)CN3CCSCC3)c2c1 (stereo not given) |  | > 100 |  | > 100 |  | 34.4 |  | > 100 |  | 59.8 |  | 43 |  | > 100 |  | 36 |  | 37.6 |  | 91.8 |
